Source: the NIST ThermoML archive (doi:10.1016/j.jct.2016.02.008)
± gives the expanded uncertainty stated by the source.

Experiments:
[1] = Crystal; for Normal melting temperature: DTA; for mass density: 298.15 K, 101.33 kPa, measuring the mass and volume of a pellet
[2] = Molar enthalpy of transition or fusion; conditions: Crystal; DSC
[3] = molar heat capacity at constant pressure; conditions: 298.15 K; 101.33 kPa; Crystal; Small sample (50 mg) DSC

Normal melting temperature [1] [°C] | Molar enthalpy of transition or fusion [2] [kcal/mol] | molar heat capacity at constant pressure [3] [J/K/mol] | mass density [1] [kg/m3] | Compound
210.0 ± 0.8 | 5.49 ± 0.153 | 178.4 ± 5.5 |  | O=C(O)c1cc2ccccc2[nH]1 [indole-2-carboxylic acid]
244.6 ± 0.6 | 7.5 ± 0.165 | 179 ± 4.6 | 1490 ± 120 | O=C(O)c1cc2ccccc2s1 [benzo[b]thiophene-2-carboxylic acid]
66 ± 0.9 | 5.09 ± 0.12 | 192.1 ± 5.3 |  | CC(=O)c1cc2ccccc2o1 [2-acetylbenzofuran]
196.7 ± 0.6 | 6.49 ± 0.155 | 184.8 ± 3.9 | 1340 ± 60 | O=C(O)c1cc2ccccc2o1 [benzofuran-2-carboxylic acid]
